This note sets out measurements from patent publication US10906878B2, “Kinase inhibitors for the treatment of disease” (Dana-Farber Cancer Institute, Inc., priority 2013, dated 2021).

In one data set the target is EGFR L858R Ba/F3 cells (Homo sapiens (Human), UniProt P00533, L858R). As to the kind of experiment: Ba/F3 cell growth inhibition (MTS assay), EGFR L858R. Format: cell-based. To be noted: for EGFR activity (% Control, 1.0 μM drug) Assay 1 L858R / IC50: Assay 1; for IC50: L858R, read-out: EGFR Ba/F3 cells IC 50 (nM) Assay 1 L858R. (Tetrazolium assays rely on reduction of a dye to a coloured formazan, in cell work by metabolically active cells.)

Data set [1] concerns the target EGFR L718Q/L858R Ba/F3 cells (Homo sapiens (Human), UniProt P00533, L718Q/L858R). As to the kind of experiment: Ba/F3 cell growth inhibition (MTS assay), EGFR L858R/L718Q. Format: cell-based. To be noted: L718Q/L858R.
The target of data set [2] is EGFR Del/T790M Ba/F3 cells (Homo sapiens, UniProt P00533, T790M, cells depend on it, form not given). As to the kind of experiment: Ba/F3 cell growth inhibition (MTS assay), EGFR Del/T790M. Conditions: for EGFR activity (% Control, 1.0 μM drug) Assay 1 Del/T790M / IC50: Assay 1; for IC50: Del/T790M, read-out: EGFR Ba/F3 cells IC 50 (nM) Assay 1 Del/T790M. Type of data set: cell-based.

For data set [3], the target named is EGFR L858R/T790M/L718Q Ba/F3 cells (Homo sapiens (Human), UniProt P00533, L718Q/L858R/T790M). As to the kind of experiment: Ba/F3 cell growth inhibition (MTS assay), EGFR L858R/T790M/L718Q. Format: cell-based. An excerpt: (§1) The specific cDNAs encoding the oncogenic alterations (EGFR: Del 19, L858R, L718Q, L844V, Del/T790M, L858R/T790M, Del 19/L718Q, Del 19/L844V, Del 19/T790M/L718Q and L858R/T790M/L718Q; FGFR: TEL-FGFR1, TEL-FGFR2, TEL-FGFR1 V561M, TEL-FGFR2 V561M; ALK: EML4-ALK; ROS1: CD74-ROS1) were cloned into the pDNA-Dual (BD Biosciences) vector using standard molecular biology techniques. Mutations were introduced using site-directed mutagenesis (Agilent) with mutant specific primers according to the manufacturer's instructions. All constructs were confirmed by DNA sequencing. The constructs were introduced into Ba/F3 cells using retroviral infection. Polyclonal cell lines were established by puromycin selection and subsequently cultured in the absence of interleukin-3 (IL-3). Uninfected Ba/F3 cells or cell lines expressing green fluorescent protein (GFP) were used as controls.
(§2) Growth and inhibition of growth was assessed by MTS assay. This assay, a colorimetric method for determining the number of viable cells, is based on the bioreduction of 3-(4,5-dimethylthiazol-2-yl)-5-(3-carboxymethoxyphenyl)-2-(4-sulfophenyl)-2H-tetrazolium (MTS) by cells to a formazan product that is soluble in cell culture medium, can be detected spectrophotometrically and was performed according to the manufacturer's recommended conditions. Ba/F3 cells were exposed to treatment for 72 hours and the number of cells used per experiment determined empirically to assure linear growth kinetics over that time period. All experimental points were set up in six to twelve wells and all experiments were repeated at least three times. […] The curves were fitted using a non-linear regression model with a sigmoidal dose response.

Data set [4] in a line: Microsome Stability Mouse. Format: in vitro ADME. To be noted: mouse microsomes.
The subject of the next data set is KIF5B/Ret_V804M. As to the kind of experiment: Ba/F3 cell growth inhibition (MTS assay), KIF5B/Ret_V804M. Format: cell-based. Here is the method:
as §2

Data set [5] concerns the target EGFR L858R/T790M Ba/F3 cells (Homo sapiens (Human), UniProt P00533, L858R/T790M). As to the kind of experiment: Ba/F3 cell growth inhibition (MTS assay), EGFR L858R/T790M. Type of data set: cell-based. To be noted: Assay 1; L858R/T790M; read-out: EGFR Ba/F3 cells IC 50 (nM) Assay 1 L858R/T790M.
From the text: as §1, §2

Data set [6] addresses EGFR Del/T790M/L718Q Ba/F3 cells (Homo sapiens, UniProt P00533, L718Q/T790M, cells depend on it, form not given). Type of data set: cell-based.
From the text: as §1, §2

Data set [7] concerns the target EGFR Wild type vIII Ba/F3 cells (Homo sapiens (Human), UniProt P00533, DELINS30-297G). The data set can be described thus: Ba/F3 cell growth inhibition (MTS assay), EGFR Wild type vIII. Type of data set: cell-based.
A further data set has as its target EGFR Del Ba/F3 cells (Homo sapiens, UniProt P00533, cells depend on it, form not given). The data set can be described thus: Ba/F3 cell growth inhibition (MTS assay), EGFR Del. Format: cell-based. To be noted: for EGFR activity (% Control, 1.0 μM drug) Assay 1 Del / IC50: Assay 1; for IC50: Del, read-out: EGFR Ba/F3 cells IC 50 (nM) Assay 1 Del.
Where [8] appears, read: Assay 1; T/L/L718Q; read-out: EGFR Ba/F3 cells IC 50 (nM) Assay 1 T/L/L718Q.
[9] abbreviates: Assay 1, read-out: EGFR Ba/F3 cells IC 50 (nM) Assay 1 Wild type vIII.

“And” between values parts separate entries of the source, which are not always exact repeats. Identical values can stand only once. Like-named read-outs stand apart in the source and are kept apart here.

As to `C=CC(=O)Nc1cccc(N(C(=O)Oc2ccccc2)c2ccnc(Nc3ccc(N4CCN(C)CC4)cc3OC)n2)c1` [Compound 10A], at EGFR L858R Ba/F3 cells, the “EGFR activity (% Control, 1.0 μM drug) Assay 1 L858R” value was found to be 4 % Control. On EGFR L858R Ba/F3 cells, the “EGFR activity (% Control, 1.0 μM drug) Assay 2 L858R” value was determined as 3 % Control. Also, the IC50 on EGFR L858R Ba/F3 cells was 1.52 nM; in [1] (read-out: EGFR Ba/F3 cells IC 50 (nM) Assay 1 L718Q/L858R, Assay 1), 146 nM; in data set [1] (read-out: EGFR Ba/F3 cells IC 50 (nM) Assay 2 L718Q/L858R, Assay 2) it was 204 nM; in [2], 22.9 nM; in data set [3] (read-out: EGFR Ba/F3 cells IC 50 (nM) Assay 1 T/L/L718Q; Assay 1; T/L/L718Q), 270 nM; in data set [5], 14.8 nM. For the same compound, the IC50 in [6] (read-out: EGFR Ba/F3 cells IC 50 Assay 1 Del/T/L718Q, Assay 1, Del/T/L718Q) is > 1000 nM and 1000 nM; in data set [7] (read-out: EGFR Ba/F3 cells IC 50 (nM) Assay 1 Wild type vIII), 28.1 nM; at EGFR Del Ba/F3 cells, 4.64 nM. In addition, the “EGFR activity (% Control, 1.0 μM drug) Assay 1 Del/T790M” value in data set [2] is recorded as 2 % Control. Besides, the “EGFR activity (% Control, 1.0 μM drug) Assay 2 Del/T790M” value in data set [2] turned out to be 2 % Control. Also, the “Microsome Stability Mouse min” value in data set [4] was found to be 18.5 min. The “KIF5B/Ret_V804M Ba/F3 cell growth (% control, 1.0 μM drug)” value in the data set with KIF5B/Ret_V804M (Assay 1) amounted to 91 % Control. The “EGFR activity (% Control, 1.0 μM drug) Assay 1 Del/T790M/L718Q” value in data set [6] (Assay 1) is 76 % Control. Besides, in data set [6], the “EGFR activity (% Control, 1.0 μM drug) Assay 2 Del/T790M/L718Q” value turned out to be 84 % Control. Further, the “EGFR activity (% Control, 1.0 μM drug) Assay 1 Del” value on EGFR Del Ba/F3 cells is given as 4 % Control. In addition, the “EGFR activity (% Control, 1.0 μM drug) Assay 2 Del” value on EGFR Del Ba/F3 cells worked out at 1 % Control.
Regarding `C=CC(=O)Nc1cccc(N(C(=O)NCc2ccccc2)c2cc(Nc3ccc(N4CCN(C)CC4)cc3OC)nc(Cl)n2)c1` [Compound 78A], the IC50 on EGFR L858R Ba/F3 cells is 2.66 nM; in data set [2] it was 68.2 nM; in data set [3] (setting [8]) it was 2240 nM; in data set [5] it was 41.8 nM; in data set [7] (setting [9]), 19.9 nM; on EGFR Del Ba/F3 cells, 23.9 nM.
Turning to `C=CC(=O)Nc1cccc(N(C(=O)Nc2ccccc2)c2cc(Nc3ccc(N4CCN(C)CC4)cc3OC)ncn2)c1` [Compound 1A, N-(3-(1-(6-((2-methoxy-4-(4-methylpiperazin-1-yl)phenyl)amino)pyrimidin-4-yl)-3-phenylureido)phenyl)acrylamide], the “EGFR activity (% Control, 1.0 μM drug) Assay 1 L858R” value at EGFR L858R Ba/F3 cells was 2 % Control. In addition, on EGFR L858R Ba/F3 cells, the “EGFR activity (% Control, 1.0 μM drug) Assay 2 L858R” value stood at 5 % Control. Besides, the IC50 amounted to 1.56 nM at EGFR L858R Ba/F3 cells; 49.8 nM in data set [1] (Assay 1, read-out: EGFR Ba/F3 cells IC 50 (nM) Assay 1 L718Q/L858R); 149 nM in data set [1] (Assay 2, read-out: EGFR Ba/F3 cells IC 50 (nM) Assay 2 L718Q/L858R); 19 nM in data set [2]; 178 nM in data set [3] (setting [8]); 3.1 nM in [5]. In addition, the figures for the IC50 (in data set [7] (setting [9]); on EGFR Del Ba/F3 cells) were 16.4 nM and 6.33 nM, respectively. Moreover, the “EGFR activity (% Control, 1.0 μM drug) Assay 1 Del/T790M” value in data set [2] is 3 % Control. Also, in data set [2], the “EGFR activity (% Control, 1.0 μM drug) Assay 2 Del/T790M” value is recorded as 1 % Control. Also, the “Microsome Stability Mouse min” value in [4] turned out to be 14 min. Moreover, the “EGFR activity (% Control, 1.0 μM drug) Assay 1 KIF5B/Ret_V804M” value in the data set on KIF5B/Ret_V804M came to 65 % Control. Further, the “EGFR activity (% Control, 1.0 μM drug) Assay 1 Del/T790M/L718Q” value in data set [6] (Assay 1) stood at 63 % Control. The “EGFR activity (% Control, 1.0 μM drug) Assay 2 Del/T790M/L718Q” value in data set [6] came to 83 % Control. The “EGFR Ba/F3 cells Assay 1 Del/T/L718Q % inhibition 1.0 uM” value in data set [6] (Assay 1, Del/T/L718Q, 1.0 uM) was found to be 47%. Also, the “EGFR activity (% Control, 1.0 μM drug) Assay 1 Del” value at EGFR Del Ba/F3 cells is 4 % Control. Besides, the “EGFR activity (% Control, 1.0 μM drug) Assay 2 Del” value at EGFR Del Ba/F3 cells was determined as 0 % Control.
With `C=CC(=O)Nc1cccc(N(C(=O)NCc2cccs2)c2cc(Nc3ccc(N4CCOCC4)cc3OC)ncn2)c1` [Compound 55A], the IC50 at EGFR L858R Ba/F3 cells was determined as 0.5 nM; in [2], 15.9 nM; in data set [3] (setting [8]) it was 657 nM; in [5], 2.4 nM; in data set [7] (setting [9]) it was 2.3 nM; at EGFR Del Ba/F3 cells, 2 nM. Besides, the “Microsome Stability Mouse min” value in data set [4] worked out at 1.8 min.
